Results reported in the NIST ThermoML archive (doi:10.1016/j.jct.2011.02.008).
Numbers after ± are expanded uncertainties.

Assay: xn = mol fraction of the nth substance listed
Conditions: Liquid, Vibrating tube method

COC(=O)c1ccccc1 [methyl benzoate] + C1CCCCC1
mass density [kg/m3]
Conditions	x1 = 0.0985	x1 = 0.1963	x1 = 0.2939	x1 = 0.3942	x1 = 0.4955	x1 = 0.596	x1 = 0.6975	x1 = 0.7993	x1 = 0.8982
318.15 K, 30000 kPa	–	–	873.9 ± 2.4	905.1 ± 2.4	936.2 ± 2.4	967.6 ± 2.4	997.8 ± 2.4	1026.6 ± 2.4	1054.7 ± 2.4
318.15 K, 35000 kPa	815.3 ± 2.4	846.3 ± 2.4	877.5 ± 2.4	908.6 ± 2.4	939.6 ± 2.4	971 ± 2.4	1001 ± 2.4	1029.7 ± 2.4	1057.8 ± 2.4
318.15 K, 40000 kPa	818.8 ± 2.4	849.9 ± 2.4	880.9 ± 2.4	912 ± 2.4	942.9 ± 2.4	974.2 ± 2.4	1004.1 ± 2.4	1032.7 ± 2.4	1060.7 ± 2.4
318.15 K, 45000 kPa	822.2 ± 2.4	853.2 ± 2.4	884.3 ± 2.4	915.2 ± 2.4	946.1 ± 2.4	977.3 ± 2.4	1007.1 ± 2.4	1035.7 ± 2.4	1063.6 ± 2.4
318.15 K, 50000 kPa	825.5 ± 2.4	856.5 ± 2.4	887.5 ± 2.4	918.4 ± 2.4	949.2 ± 2.4	980.3 ± 2.4	1010.1 ± 2.4	1038.6 ± 2.4	1066.5 ± 2.4
318.15 K, 55000 kPa	828.7 ± 2.4	859.7 ± 2.4	890.6 ± 2.4	921.5 ± 2.4	952.3 ± 2.4	983.3 ± 2.4	1013 ± 2.4	1041.5 ± 2.4	1069.3 ± 2.4
318.15 K, 60000 kPa	831.6 ± 2.4	862.5 ± 2.4	893.4 ± 2.4	924.3 ± 2.4	955.1 ± 2.4	986 ± 2.4	1015.7 ± 2.4	1044.1 ± 2.4	1071.8 ± 2.4
328.15 K, 100 kPa	776 ± 2.4	807.7 ± 2.4	839.6 ± 2.4	871.6 ± 2.4	903.6 ± 2.4	935.6 ± 2.4	966.7 ± 2.4	996.3 ± 2.4	1025.1 ± 2.4
328.15 K, 1000 kPa	777 ± 2.4	808.7 ± 2.4	840.5 ± 2.4	872.5 ± 2.4	904.4 ± 2.4	936.4 ± 2.4	967.4 ± 2.4	997 ± 2.4	1025.8 ± 2.4
328.15 K, 5000 kPa	781.2 ± 2.4	812.7 ± 2.4	844.5 ± 2.4	876.3 ± 2.4	908.1 ± 2.4	939.9 ± 2.4	970.6 ± 2.4	1000.2 ± 2.4	1028.9 ± 2.4
328.15 K, 10000 kPa	786.2 ± 2.4	817.6 ± 2.4	849.2 ± 2.4	880.4 ± 2.4	912.3 ± 2.4	944.1 ± 2.4	974.8 ± 2.4	1004 ± 2.4	1032.6 ± 2.4
328.15 K, 15000 kPa	790.7 ± 2.4	822.1 ± 2.4	853.6 ± 2.4	885.1 ± 2.4	916.5 ± 2.4	948.1 ± 2.4	978.6 ± 2.4	1007.7 ± 2.4	1036.2 ± 2.4
328.15 K, 20000 kPa	795.2 ± 2.4	826.5 ± 2.4	857.8 ± 2.4	889.2 ± 2.4	920.5 ± 2.4	951.9 ± 2.4	982.3 ± 2.4	1011.3 ± 2.4	1039.7 ± 2.4
328.15 K, 25000 kPa	799.4 ± 2.4	830.6 ± 2.4	861.8 ± 2.4	893.1 ± 2.4	924.3 ± 2.4	955.6 ± 2.4	985.9 ± 2.4	1014.7 ± 2.4	1043 ± 2.4
328.15 K, 30000 kPa	803.4 ± 2.4	834.5 ± 2.4	865.7 ± 2.4	896.9 ± 2.4	928 ± 2.4	959.2 ± 2.4	989.4 ± 2.4	1018.1 ± 2.4	1046.3 ± 2.4
328.15 K, 35000 kPa	807.3 ± 2.4	838.3 ± 2.4	869.4 ± 2.4	900.5 ± 2.4	931.5 ± 2.4	962.7 ± 2.4	992.7 ± 2.4	1021.4 ± 2.4	1049.4 ± 2.4
328.15 K, 40000 kPa	811 ± 2.4	842 ± 2.4	873 ± 2.4	904.1 ± 2.4	935 ± 2.4	966 ± 2.4	996 ± 2.4	1024.5 ± 2.4	1052.5 ± 2.4
328.15 K, 45000 kPa	814.6 ± 2.4	845.5 ± 2.4	876.5 ± 2.4	907.5 ± 2.4	938.3 ± 2.4	969.3 ± 2.4	999.1 ± 2.4	1027.6 ± 2.4	1055.5 ± 2.4
328.15 K, 50000 kPa	818 ± 2.4	848.9 ± 2.4	879.8 ± 2.4	910.8 ± 2.4	941.5 ± 2.4	972.5 ± 2.4	1002.2 ± 2.4	1030.7 ± 2.4	1058.5 ± 2.4
328.15 K, 55000 kPa	821.3 ± 2.4	852.2 ± 2.4	883.1 ± 2.4	914 ± 2.4	944.7 ± 2.4	975.6 ± 2.4	1005.3 ± 2.4	1033.6 ± 2.4	1061.4 ± 2.4
328.15 K, 60000 kPa	824.3 ± 2.4	855.5 ± 2.4	886.1 ± 2.4	916.9 ± 2.4	947.6 ± 2.4	978.3 ± 2.4	1008 ± 2.4	1036.3 ± 2.4	1064.2 ± 2.4
338.15 K, 100 kPa	766.2 ± 2.4	798 ± 2.4	829.9 ± 2.4	861.9 ± 2.4	893.9 ± 2.4	926 ± 2.4	957 ± 2.4	986.6 ± 2.4	1015.6 ± 2.4
338.15 K, 1000 kPa	767.2 ± 2.4	799 ± 2.4	830.9 ± 2.4	862.8 ± 2.4	894.7 ± 2.4	926.8 ± 2.4	957.8 ± 2.4	987.4 ± 2.4	1016.3 ± 2.4
338.15 K, 5000 kPa	771.8 ± 2.4	803.4 ± 2.4	835.1 ± 2.4	866.9 ± 2.4	898.7 ± 2.4	930.5 ± 2.4	961.3 ± 2.4	990.8 ± 2.4	1019.6 ± 2.4
338.15 K, 10000 kPa	777 ± 2.4	808.5 ± 2.4	840 ± 2.4	871.6 ± 2.4	903.2 ± 2.4	934.9 ± 2.4	965.6 ± 2.4	994.9 ± 2.4	1023.5 ± 2.4
338.15 K, 15000 kPa	782 ± 2.4	813.3 ± 2.4	844.7 ± 2.4	876.2 ± 2.4	907.6 ± 2.4	939.2 ± 2.4	969.6 ± 2.4	998.8 ± 2.4	1027.2 ± 2.4
338.15 K, 20000 kPa	786.7 ± 2.4	817.9 ± 2.4	849.2 ± 2.4	880.5 ± 2.4	911.8 ± 2.4	943.2 ± 2.4	973.5 ± 2.4	1002.5 ± 2.4	1030.8 ± 2.4
338.15 K, 25000 kPa	791.1 ± 2.4	822.3 ± 2.4	853.4 ± 2.4	884.6 ± 2.4	915.8 ± 2.4	946.9 ± 2.4	977.3 ± 2.4	1006.2 ± 2.4	1034.4 ± 2.4
338.15 K, 30000 kPa	795.4 ± 2.4	826.4 ± 2.4	857.5 ± 2.4	888.6 ± 2.4	919.6 ± 2.4	950.8 ± 2.4	980.9 ± 2.4	1009.7 ± 2.4	1037.8 ± 2.4
338.15 K, 35000 kPa	799.4 ± 2.4	830.4 ± 2.4	861.4 ± 2.4	892.4 ± 2.4	923.4 ± 2.4	954.5 ± 2.4	984.4 ± 2.4	1013.1 ± 2.4	1040.9 ± 2.4
338.15 K, 40000 kPa	803.3 ± 2.4	834.2 ± 2.4	865.2 ± 2.4	896.1 ± 2.4	927 ± 2.4	958 ± 2.4	987.8 ± 2.4	1016.4 ± 2.4	1044.3 ± 2.4
338.15 K, 45000 kPa	807 ± 2.4	837.9 ± 2.4	868.8 ± 2.4	899.6 ± 2.4	930.4 ± 2.4	–	–	–	–
